Source: US20240228487A1, “FUSED HETEROCYCLIC COMPOUND AND APPLICATION THEREOF, PHARMACEUTICAL COMPOSITIONS CONTAINING SAME AND APPLICATION THEREOF” (ZHEJIANG UNIVERSITY, priority 2021, published 2024)

Legend:
[1] = test system: dopaminergic neurons differentiated from iPSC derived from disseminated PD patients; experiment: mitochondrial fusion morphology (Mitotracker, Girk2 labeling) of iPSC differentiated dopaminergic neurons; format: cell-based, human; conditions: II-23 0.6 μM, ACA 0.5 μM; Mitotracker staining, Girk2-positive neurons
Description: Using normal and disseminated PD patient-derived induced pluripotent stem cells (iPSC), performing drug interventions using the TRPM2 inhibitors ACA and II-23 after they were induced and differentiated into mature dopaminergic neurons, the drug treating method is as follows: • a. Calculating the materials for the experiment, and starting preparing when the dopaminergic neurons are differentiated to the 8th day. The petri dishes should be treated with 33 μg/mL PDL overnight and washed with sterilized water. After drying, 2 μg/mL of laminin was added and incubated overnight. Both PDL and laminin can be recycled for reuse. • b. […] Fluorescence confocal imaging was performed using a confocal dish inoculated with 2 mL/dish, and cell viability assays were performed using a 96-well plate inoculated with 100 μL/well. […]
Positive dopamine neurons were labeled with a dopaminergic neuron marker molecule Girk2 antibody susceptible for SNc, and cellular mitochondria were labeled with the mitochondrial dye mitotracker as in FIG. 15. […] Finally, performing the fluorescence imaging: removing the secondary antibody, and washing three times with 1×PBS, adding 50% Glycerol for fluorescence protection, and then imaging with a Zeiss LSM880 laser confocal microscope, as shown in FIG. 15.

[2] = test system: dopaminergic neurons differentiated from iPSC derived from disseminated PD patients; experiment: cell viability (cell titer glo) of iPSC differentiated dopaminergic neurons; format: cell-based, human; conditions: II-23 0.6 μM, ACA 0.5 μM, from day 15 of culture; CTG kit
Description: Using normal and disseminated PD patient-derived induced pluripotent stem cells (iPSC), performing drug interventions using the TRPM2 inhibitors ACA and II-23 after they were induced and differentiated into mature dopaminergic neurons, the drug treating method is as follows: • a. Calculating the materials for the experiment, and starting preparing when the dopaminergic neurons are differentiated to the 8th day. The petri dishes should be treated with 33 μg/mL PDL overnight and washed with sterilized water. After drying, 2 μg/mL of laminin was added and incubated overnight. Both PDL and laminin can be recycled for reuse. • b. Digesting and collecting the differentiated cells with Accutase, and counting with a cell counting plate, and then diluting to 500,000/mL with maturation medium (Y-27632 should be added). Fluorescence confocal imaging was performed using a confocal dish inoculated with 2 mL/dish, and cell viability assays were performed using a 96-well plate inoculated with 100 μL/well. Taking this time point as the 10th day, changing to Y-27632-free medium on the 11th day, and changing the medium every two days. • c. When the cells were cultured to the 15th day, treating the drugs to a final concentration with the medium, the working concentration of ACA is 0.5 μM, and the working concentration of II-23 is 0.6 μM, and the drug-containing medium was changed every four days. […]

[3] = test system: C57BL/6 mice, transient middle cerebral artery occlusion (tMCAO); experiment: mouse tMCAO cerebral stroke model (Embodiment 69); format: in vivo; conditions: 3 mg/kg tail vein injection 3 h after reperfusion
Excerpt: After isoflurane inhalation gas anesthesia of 22-25 g male C57BL/6 mice, the fiber-optic probes of a laser Doppler flowmeter were fixed to the skull of the mice with glue for monitoring the cerebral blood flow of the middle cerebral artery (MCA) supplying cortex. The mice were fixed in the supine position, and the middle of the neck was dehaired and routinely sterilized with 75% alcohol. An approximately 1.5 cm incision was made in the middle of the neck, and the skin of the neck was incised, and the muscle and fascia were separated along the inner edge of the sternocleidomastoideole; the right carotid artery sheath was bluntly separated to expose the right common carotid artery (CCA), external carotid artery (ECA), and internal carotid artery (ICA); after the surgical area was exposed satisfactorily, the CCA and ICA were temporarily clipped with arterial clips, and a small incision was made at the proximal end of the ECA with microsurgical scissors, and a nylon monofilament suture was inserted from the small incision along the ECA, and gently pushed into the intracranial area in the direction of the ICA for about 11.5±0.5 mm, blocking the beginning of the middle cerebral artery. Only the animals whose blood flow values decreased to 20% of the basic value were selected according to the blood flow data monitored by the flowmeter. After 90 minutes of ischemia, the monofilament sutures were gently withdrawn out, the arterial stumps were tied tightly, the surgical wounds were inspected, the bleeding was thoroughly stopped, a small amount of penicillin powder was sprinkled locally to prevent infection, and the subcutaneous tissues and the skin were sutured layer by layer, thus completing the ischemia reperfusion injury model. A heating plate was used to maintain the body temperature of the animals during surgery. After completion of the surgery, the sutured mice were placed in a heat preservation and humidification box until the mice recovered activities. Animals in the sham-operated group were subjected to the same surgical procedure but without middle artery occlusion.
Clean-grade male C57BL/6 mice were randomly divided into five groups, namely, the sham-operated group, the group of the positive control drug Edaravone(3 mg/kg), and the 3 mg/kg dose group of compounds II-1, II-23 and III-1.
The mice were subjected to tail vein injections of Edaravone, II-1, II-23, and III-1 respectively 3 h after modeling and reperfusion; the sham-operated group was injected with an equal volume of saline, and II-1, II-23, III-1, and Edaravone were dissolved in 0.9% saline solution. Neurological function scores and TTC staining of mice were performed 24 h after ischemia-reperfusion, and the results are shown in FIGS. 6, 7 and 8.
The mice were decapitated 24 h after ischemia-reperfusion, the coronal planes of the brains were cut into brain slices of about 2 mm thickness uniformly. The brain slices were placed in 0.25% 2,3,5-triphenyltetrazolium chloride (TTC) solution, incubated at 37° C. Celsius for 30 minutes away from light, stained, and fixed in 4% paraformaldehyde neutral buffer (pH 7.4) overnight. The processed brain slices were photographed using a macro camera, and Image J image analysis software was used to calculate and count the cerebral infarct volume, and the measured results are shown in FIG. 7. The formula for calculating the percentage of infarct volume was (sum of the left uninfarcted area −sum of the right uninfarcted area)/sum of the left uninfarcted area×100%.
According to the five-level, four-point standard of score, the mortality and neuromotor dysfunction scores of each group of mice were performed, and the results are shown in FIG. 8. […]

## CCN(CC)C(=O)c1cc(C(=O)c2ccccc2)n2cccc2c1 [II-23, 5-Benzoyl-N, N-diethylindolizine-7-formamide]
[1]
  excessive mitochondrial fusion in dopaminergic neurons derived from PD patients: reversed
[2]
  cell viability of differentiated dopaminergic neurons derived from disseminated PD patients: restored
[3]; TTC staining 24 h after ischemia-reperfusion
  area of cerebral infarction caused by tMCAO: significantly reduced
[3]; scored 24 h after ischemia-reperfusion
  neuromotor dysfunction scores caused by tMCAO: significantly reduced
